In patent US20120324604A1, “PESTICIDAL MIXTURES CONTAINING ISOXAZOLINE DERIVATIVES AND A FUNGICIDE” (priority 2010, published 2012):
“And” between values parts separate entries of the source, which are not always exact repeats. Equal values may be shown once.

Tests used:
Assay type in all cases: cell-based
[1] = test system: Glomerella lagenarium (syn. Colletotrichum lagenarium); test: Glomerella lagenarium (Anthracnose of Cucurbits) growth inhibition, microtiter plate, photometric; settings: alone
Method: Glomerella lagenarium (syn. Colletotrichum lagenarium), Anthracnose of Cucurbits:
(§1) Conidia of the fungus from cryogenic storage were directly mixed into nutrient broth (potato dextrose broth). After placing a (DMSO) solution of the test compounds into a microtiter plate (96-well format) the nutrient broth containing the fungal spores was added.

Rhizoctonia solani = Rhizoctonia solani (Foot Rot, Damping-Off) growth inhibition, microtiter plate, photometric
Method: Rhizoctonia solani (Foot Rot, Damping-Off):
Mycelial fragments of the fungus from cryogenic storage were directly mixed into nutrient broth (potato dextrose broth). After placing a (DMSO) solution of the test compounds into a microtiter plate (96-well format) the nutrient broth containing the fungal spores was added.

Septoria tritici = Septoria tritici (Leaf Blotch) growth inhibition, microtiter plate, photometric
Method: Septoria tritici (Leaf Blotch):
as §1

Gaeumannomyces graminis = Gaeumannomyces graminis growth inhibition, microtiter plate, photometric
Method: Mycelial fragments of the fungus from cryogenic storage were directly mixed into nutrient broth (potato dextrose broth). After placing a (DMSO) solution of the test compounds into a microliter plate (96-well format) the nutrient broth containing the fungal spores was added.

[2] = test system: Mycosphaerella arachidis (syn. Cercospora arachidicola); test: Mycosphaerella arachidis (Brown Leaf Spot of Groundnut) growth inhibition, microtiter plate, photometric; settings: alone
Method: Mycosphaerella arachidis (syn. Cercospora arachidicola), Brown Leaf Spot of Groundnut (Peanut):
as §1

Pythium ultimum = Pythium ultimum (Damping Off) growth inhibition, microtiter plate, photometric
Method: Pythium ultimum (Damping Off):
Mycelial fragments of the fungus, prepared from a fresh liquid culture, were directly mixed into nutrient broth (potato dextrose broth). After placing a (DMSO) solution of the test compounds into a microtiter plate (96-well format) the nutrient broth containing the fungal spores was added.

[3] = single compound at 0.125 ppm AI

## CO/C=C(\C(=O)OC)c1ccccc1Oc1cc(Oc2ccccc2C#N)ncn1 [Azoystrobin]
[1]; 0.0078125 ppm AI
  AVERAGE DEAD IN %: 0%
[1]; 0.015625 ppm AI
  AVERAGE DEAD IN %: 50%
[1]; 0.03125 ppm AI
  AVERAGE DEAD IN %: 50%
[1]; 0.0625 ppm AI
  AVERAGE DEAD IN %: 70%

## CC(C)C1C2CCC1c1c(NC(=O)c3cn(C)nc3C(F)F)cccc12 (stereo not shown) [Isopyrazam, reference compound]
Rhizoctonia solani; applied alone, 0.015625 ppm AI
  AVERAGE DEAD IN %: 0%
Rhizoctonia solani; applied alone, 0.125 ppm AI
  AVERAGE DEAD IN %: 70% and 90% and 100%
Rhizoctonia solani; applied alone, 0.25 ppm AI
  AVERAGE DEAD IN %: 90%
Rhizoctonia solani; single compound at 0.0078125 ppm AI
  AVERAGE DEAD IN %: 0%
Rhizoctonia solani; single compound at 0.015625 ppm AI
  AVERAGE DEAD IN %: 0%
Rhizoctonia solani; single compound at 0.03125 ppm AI
  AVERAGE DEAD IN %: 0%
Rhizoctonia solani; single compound at 0.0625 ppm AI
  AVERAGE DEAD IN %: 50%
Rhizoctonia solani; [3]
  AVERAGE DEAD IN %: 70%
Rhizoctonia solani; single compound at 0.25 ppm AI
  AVERAGE DEAD IN %: 90%
Septoria tritici; 0.0625 ppm AI, alone
  AVERAGE DEAD IN %: 20%
Septoria tritici; 0.125 ppm AI, alone
  AVERAGE DEAD IN %: 50%
Septoria tritici; 0.25 ppm AI, alone
  AVERAGE DEAD IN %: 70%
Septoria tritici; 0.5 ppm AI, alone
  AVERAGE DEAD IN %: 90%
Septoria tritici; Isopyrazam alone, 0.0625 ppm AI
  AVERAGE DEAD IN % Isopyrazam: 20%
Septoria tritici; Isopyrazam alone, 0.25 ppm AI
  AVERAGE DEAD IN % Isopyrazam: 90% and 70%
Septoria tritici; Isopyrazam alone, 0.5 ppm AI
  AVERAGE DEAD IN % Isopyrazam: 90%
Septoria tritici; alone, 0.0078125 ppm AI
  AVERAGE DEAD IN %: 0%
Septoria tritici; alone, 0.015625 ppm AI
  AVERAGE DEAD IN %: 0%
Septoria tritici; alone, 0.03125 ppm AI
  AVERAGE DEAD IN %: 0%
Septoria tritici; alone, 0.0625 ppm AI
  AVERAGE DEAD IN %: 20%
Septoria tritici; alone, 0.125 ppm AI
  AVERAGE DEAD IN %: 50%
Septoria tritici; alone, 0.25 ppm AI
  AVERAGE DEAD IN %: 70%
Septoria tritici; alone, 0.5 ppm AI
  AVERAGE DEAD IN %: 90%
Gaeumannomyces graminis; applied alone, 0.25 ppm AI
  AVERAGE DEAD IN %: 0%
Gaeumannomyces graminis; applied alone, 0.5 ppm AI
  AVERAGE DEAD IN %: 0%
Gaeumannomyces graminis; single compound at 0.5 ppm AI
  AVERAGE DEAD IN %: 0%
Gaeumannomyces graminis; single compound at 2 ppm AI
  AVERAGE DEAD IN %: 50%
[2]; 0.0078125 ppm AI
  AVERAGE DEAD IN %: 0%
[2]; 0.015625 ppm AI
  AVERAGE DEAD IN %: 0%
[2]; 0.03125 ppm AI
  AVERAGE DEAD IN %: 20%
[2]; 0.0625 ppm AI
  AVERAGE DEAD IN %: 70% and 90%
[2]; 0.015625 PPM AI
  AVERAGE DEAD IN %: 0%
[2]; 0.03125 PPM AI
  AVERAGE DEAD IN %: 20%
[2]; 0.0625 PPM AI
  AVERAGE DEAD IN %: 50% and 70%

## COCC(=O)N(c1c(C)cccc1C)[C@H](C)C(=O)OC [Mefenoxam, reference compound]
Pythium ultimum; [3]
  AVERAGE DEAD IN %: 50% and 70%
Pythium ultimum; single compound at 0.25 ppm AI
  AVERAGE DEAD IN %: 70% and 90%
Pythium ultimum; single compound at 0.5 ppm AI
  AVERAGE DEAD IN %: 90% and 100%
Pythium ultimum; single compound at 1 ppm AI
  AVERAGE DEAD IN %: 100%
Pythium ultimum; single compound at 2 ppm AI
  AVERAGE DEAD IN %: 100%
Gaeumannomyces graminis; single compound at 0.25 ppm AI
  AVERAGE DEAD IN %: 0%
Gaeumannomyces graminis; single compound at 0.5 ppm AI
  AVERAGE DEAD IN %: 0%
Gaeumannomyces graminis; single compound at 1 ppm AI
  AVERAGE DEAD IN %: 0%

## C#CCOc1ccc(CCNC(=O)C(OCC#C)c2ccc(Cl)cc2)cc1OC (stereo not shown) [Mandipropamid, reference compound]
Gaeumannomyces graminis; single compound at 0.25 ppm AI
  AVERAGE DEAD IN %: 0%
Gaeumannomyces graminis; single compound at 0.5 ppm AI
  AVERAGE DEAD IN %: 0%
Gaeumannomyces graminis; single compound at 1 ppm AI
  AVERAGE DEAD IN %: 0%
